# From US20140009887A1, “FLUORINATED OXIRANES AS HEAT TRANSFER FLUIDS” (3M INNOVATIVE PROPERTIES COMPANY, priority 2011, published 2014)
# Assays:
# [1] = Atmospheric lifetime from kinetic studies for reaction with hydroxyl radical; format: physicochemical; settings: based on kinetic studies for reaction with hydroxyl radical
# Text: The atmospheric lifetimes of C6F14 and CF3OCF(CF3)CF2OCF2OCF3 are reported as 3200 years and 800 years, respectively (see Climate Change 2007: The Physical Science Basis. Contribution of Working Group I to the Fourth Assessment Report of the Intergovernmental Panel on Climate Change, Solomon, S., D. Qin, M. Manning, Z. Chen, M. Marquis, K. B. Averyt, M. Tignor and H. L. Miller (eds.), Cambridge University Press, Cambridge, United Kingdom and New York, N.Y., USA, 996 pp, 2007.). […] Based on kinetic studies for reaction with hydroxyl radical, 2,3-difluoro-2-(1,2,2,2-tetrafluoro-l-trifluoromethyl-ethyl)-3-trifluoromethyl-oxirane has an estimated atmospheric lifetime of 20 years.
# [2] = reported in Climate Change 2007, IPCC Fourth Assessment Report; cited from earlier work
# [3] = Normal boiling point (thermophysical properties); format: physicochemical
# Text: (§1) The useful liquid range (between the pour point and the normal boiling point) of the fluorinated oxiranes (Examples 1-3) are similar to perfluorocarbons (Comparative 1), perfluoroketones (Comparative 2), and perfluoroethers (Comparative 3). The specific heat capacity of the Comparatives is also very similar to the exemplary fluorinated oxiranes.
# Kinematic viscosity = format: physicochemical; settings: for Viscosity @ 25° C.: kinematic viscosity; for Low temperature kinematic viscosity (in words): compared with fluids close in boiling point, FIG. 1 and FIG. 2
# Text: as §1
# The viscosity impacts the heat transfer performance and liquid pumping power.
# Specific heat capacity = format: physicochemical
# Text: as §1
# [4] = Hydrolytic stability: fluoride ion in water phase after aging with deionized water; format: physicochemical; settings: for F concentration after 30 min at 25° C. / F concentration after 4 hours at 50° C.: 5 g material + 5 g deionized water; for F concentration after 30 min at 25° C.: agitated 30 min at room temperature (~25° C.); for F concentration after 4 hours at 50° C.: monel pressure vessel
# Experimental: Example 1 and Comparatives 1 and 2 were tested for hydrolytic stability at room temperature (˜25° C.) and 50° C. Room temperature testing was conducted by placing 5 grams of test material along with 5 grams of deionized water in new polypropylene, centrifuge tubes which were then sealed and agitated for 30 minutes using a shaker set at low speed. Elevated temperature testing was carried out by placing 5 grams of test material along with 5 grams deionized water in a clean monel pressure vessel which was sealed and placed in a convection oven set at 50° C. for 4 hours. After aging, the fluoride concentrations were determined by mixing 0.5 ml of the water phase from each sample with 0.5 ml of TISAB II buffer solution and measuring fluoride ion concentration using a calibrated fluoride selective electrode connected to a pH/millivolt meter (both the electrode and buffer solutions are available from Thermo Scientific Orion, Beverly, Mass.). The hydrolytic stability of Example 1, Comparative Example 1 and Comparative Example 2 were determined and are reported as parts per million by weight (ppmw) of fluorine in Table III below.
# [5] = Pour point (thermophysical properties); format: physicochemical
# Text: as §1
# Vapor pressure = format: physicochemical
# Text: as §1
# [6] = Dielectric breakdown strength according to ASTM D877; format: physicochemical; settings: ASTM D877, model LD60 liquid dielectric test set
# Experimental: In applications where the direct contact of energized, electronic components by the heat transfer fluid occurs, whether intended or otherwise, the need exists for fluids with dielectric breakdown strengths greater than around 8 megavolts/meter (MV/m), measured according to ASTM D877. Such high dielectric breakdown strengths help to avoid damage to the electronic components through short circuits.
# The dielectric breakdown strengths of Example 1 and 3 were determined according to ASTM D877, using a model LD60 liquid dielectric test set available from Phenix Technologies, Accident, Md. The breakdown strengths for example 1 and 3 were 15.5 MV/m and 17.3 MV/m respectively.
Compound,Estimated atmospheric lifetime [1] [years],Atmospheric lifetime [2] [years],Normal Boiling Point [3] [°C],Viscosity @ 25° C. (Kinematic viscosity),Specific Heat Capacity (Specific heat capacity) [J/kg-K],F concentration after 30 min at 25° C. [4] [ppmw],F concentration after 4 hours at 50° C. [4] [ppmw],Pour Point [5] [°C],Vapor Pressure @ 25° C. (Vapor pressure) [kPa],Low temperature kinematic viscosity (in words) (Kinematic viscosity),Hydrolytic stability (comparison in words) ([4]; room temperature and 50° C.),Dielectric breakdown strength [6] [MV/m]
"FC(F)(F)C(F)(F)C1(F)OC1(C(F)(F)F)C(F)(F)F (stereo not drawn) [2-fluoro-2-pentafluoroethyl-3,3-bis-trifluoromethyl-oxirane]",77,–,–,–,–,–,–,–,–,–,–,–
FC(F)(F)OC(F)(F)OC(F)(F)C(F)(OC(F)(F)F)C(F)(F)F (stereo not drawn) [CF3OCF(CF3)CF2OCF2OCF3],–,800,–,–,–,–,–,–,–,–,–,–
"FC(F)(F)C(F)(F)C(F)(F)C(F)(F)C(F)(F)C(F)(F)F [Comparative 1, Perfluorohexane]",–,3200,56,3.8 ×10^−7 m^2/s,1100,0.09,0.23,−90,30.0,–,–,–
"O=C(C(F)(F)C(F)(F)F)C(F)(C(F)(F)F)C(F)(F)F [Comparative 2, Dodecafluoro-2-methylpentan-3-one]",–,–,49,4.0 ×10^−7 m^2/s,1103,1.13,5.89,−108,40.4,–,–,–
"CCOC(F)(C(F)(F)C(F)(F)C(F)(F)F)C(F)(C(F)(F)F)C(F)(F)F (stereo not drawn) [Comparative 3, 2-trifluoromethyl-3-ethoxydodecafluorohexane]",–,–,128,7.7 ×10^−7 m^2/s,1128,–,–,−100,2.1,–,–,–
"FC(F)(F)C(F)(F)C(F)(F)N(C(F)(F)C(F)(F)C(F)(F)F)C(F)(F)C(F)(F)C(F)(F)F [Comparative 4, Perfluorotripropylamine]",–,–,130,7.5 ×10^−7 m^2/s,1100,–,–,−50,1.4,–,–,–
"FC(F)(F)C1(F)OC1(F)C(F)(C(F)(F)F)C(F)(F)F (stereo not drawn) [Example 1, 2,3-difluoro-2-(1,2,2,2-tetrafluoro-1-trifluoromethyl-ethyl)-3-trifluoromethyl-oxirane]",20,–,51.7,3.7 ×10^−7 m^2/s,1145,0.14,0.13,−145,36.0,better low temperature viscosity,comparable to that of comparative 1 and better than comparative 2,15.5
"FC1(F)C(F)(F)C(F)(F)C2(F)OC2(F)C1(F)F (stereo not drawn) [Example 2, 1,2,2,3,3,4,4,5,5,6-decafluoro-7-oxa-bicyclo [4.1.0]heptane]",–,–,56.1,6.6 ×10^−7 m^2/s,1083,–,–,−88,30.3,better low temperature viscosity,–,–
HFP Trimer-Oxirane [Example 3],–,–,121.9,12.5 ×10^−7 m^2/s,869,–,–,−103,1.6,acceptable viscosity for heat transfer applications as low as −40 °C,–,17.3
